Test results published in patent publication US8685970B2, “Quinolines and related analogs as sirtuin modulators” (GlaxoSmithKline, LLC, priority 2008, dated 2014).

Biological target: T1, SIRT1 (Homo sapiens, UniProt Q96EB6)
T1 sequence (Q96EB6 1-747): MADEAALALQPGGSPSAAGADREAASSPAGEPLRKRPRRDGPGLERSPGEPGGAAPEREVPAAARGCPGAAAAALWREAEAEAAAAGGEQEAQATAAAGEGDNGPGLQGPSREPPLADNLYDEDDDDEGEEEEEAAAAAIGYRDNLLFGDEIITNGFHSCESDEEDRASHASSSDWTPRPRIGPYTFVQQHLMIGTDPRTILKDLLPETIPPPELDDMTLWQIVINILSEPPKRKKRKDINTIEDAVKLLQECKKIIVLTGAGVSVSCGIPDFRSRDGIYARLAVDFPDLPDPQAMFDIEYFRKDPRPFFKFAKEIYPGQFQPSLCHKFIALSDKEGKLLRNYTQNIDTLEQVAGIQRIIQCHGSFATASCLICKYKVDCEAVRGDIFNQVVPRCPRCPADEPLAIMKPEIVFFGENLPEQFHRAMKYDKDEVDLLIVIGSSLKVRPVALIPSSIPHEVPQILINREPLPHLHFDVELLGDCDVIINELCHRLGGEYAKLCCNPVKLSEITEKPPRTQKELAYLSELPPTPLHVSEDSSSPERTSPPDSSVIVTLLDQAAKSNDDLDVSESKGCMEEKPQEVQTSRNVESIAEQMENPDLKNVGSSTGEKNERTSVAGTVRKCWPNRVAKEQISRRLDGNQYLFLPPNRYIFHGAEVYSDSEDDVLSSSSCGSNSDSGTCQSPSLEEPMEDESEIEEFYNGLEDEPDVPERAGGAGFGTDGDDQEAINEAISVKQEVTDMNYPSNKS
Assay: Mass spectrometry based SIRT1 deacetylation assay (activation)
Format: biochemical
Conditions: 10 nM SIRT1, 0.5 μM peptide substrate, 120 μM βNAD+, 25 min at 25° C.
Procedure, shortened: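 Recombinant N-His-tagged SIRT1 (E. coli BL21(DE3)), 10 nM, incubated 25 min at 25 °C with 0.5 μM biotin/5TMR-labelled acetyl-p53-derived 20-mer peptide and 120 μM βNAD+ in Tris-acetate pH 8 buffer with DTT and BSA. Formic acid stop; MS quantifies acetylated vs deacetylated peptide. EC1.5 = concentration giving 150% activation versus DMSO.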

Compound | % Fold Act. (percent maximum fold activation) | EC1.5 (concentration of test compound that results in 150% activation of SIRT1)
O=C(Nc1ncnc2ccc(-c3cccc(OC(F)(F)F)c3)nc12)c1cccnc1 [Compound 210] | A (Fold activation >200%) | B (EC1.5 1-25 uM)
O=C(Nc1ncnc2ccc(-c3cccc(OC(F)(F)F)c3)nc12)c1cccc(C(F)(F)F)c1 [Compound 211] |  | C (EC1.5>25 uM)
Cc1ccc(-c2ccc3cccc(NC(=O)c4cscn4)c3n2)cc1 [Compound 212] | B (Fold Activation <200%) | B (EC1.5 1-25 uM)
Cc1ccc(-c2ccc3cccc(NC(=O)c4cscn4)c3n2)cc1F [Compound 213] | B (Fold Activation <200%) | A (EC1.5<1.0 uM)
CN(C)c1cccc(C(=O)Nc2cccc3ccc(-c4cccc(C(F)(F)F)c4)nc23)c1 [Compound 215] | B (Fold Activation <200%) | A (EC1.5<1.0 uM)
O=C(Nc1cccc(OC[C@H](O)CO)c1)c1cccc2ccc(-c3cccc(C(F)(F)F)c3)nc12 [Compound 217] | A (Fold activation >200%) | A (EC1.5<1.0 uM)
O=C(Nc1ncc(CN2CCCC2)s1)c1cccc2ccc(-c3cccnc3)nc12 [Compound 218] | A (Fold activation >200%) | B (EC1.5 1-25 uM)
O=C(Nc1ncc(CN2CCCC2)s1)c1cccc2ccc(-c3cccc(C(F)(F)F)c3)nc12 [Compound 219] | A (Fold activation >200%) | A (EC1.5<1.0 uM)
O=C(Nc1cccc2ccc(-c3cccc(C(F)(F)F)c3)nc12)c1cncs1 [Compound 220] | A (Fold activation >200%) | A (EC1.5<1.0 uM)
Cc1cc(-c2ccc3cccc(C(=O)Nc4nccs4)c3n2)ccn1 [Compound 223] |  | C (EC1.5>25 uM)
O=C(Nc1cccc2ccc(-c3cccc(C(F)(F)F)c3)nc12)c1cc[nH]n1 [Compound 224] | A (Fold activation >200%) | A (EC1.5<1.0 uM)
Cc1cnc(NC(=O)c2cccc3ccc(-c4cccnc4)nc23)s1 [Compound 225] |  | C (EC1.5>25 uM)
O=C(Nc1cccc(CN2CCCC2)n1)c1cccc2ccc(-c3cccc(C(F)(F)F)c3)nc12 [Compound 227] | A (Fold activation >200%) | A (EC1.5<1.0 uM)
CS(=O)(=O)c1cncc(-c2ccc3cccc(NC(=O)c4cscn4)c3n2)c1 [Compound 229] | A (Fold activation >200%) | B (EC1.5 1-25 uM)
O=C(Nc1cccc(CN2CCOCC2)n1)c1cccc2ccc(-c3cccnc3)nc12 [Compound 231] | A (Fold activation >200%) | A (EC1.5<1.0 uM)
O=C(Nc1nncs1)c1cccc2ccc(-c3cccnc3)nc12 [Compound 234] |  | C (EC1.5>25 uM)
Cc1nnc(NC(=O)c2cccc3ccc(-c4cccnc4)nc23)s1 [Compound 235] |  | C (EC1.5>25 uM)
Cc1cc(NC(=O)c2cccc3ccc(-c4cccnc4)nc23)sn1 [Compound 236] |  | C (EC1.5>25 uM)
O=C(Nc1ccncc1)c1cccc2ccc(-c3cccnc3)nc12 [Compound 237] |  | C (EC1.5>25 uM)
Cc1csc(NC(=O)c2cccc3ccc(-c4cccc(N5CCOCC5)c4)nc23)n1 [Compound 238] | A (Fold activation >200%) | A (EC1.5<1.0 uM)
Cc1nc(NC(=O)c2cccc3ccc(-c4cccc(N5CCOCC5)c4)nc23)sc1C [Compound 240] | A (Fold activation >200%) | A (EC1.5<1.0 uM)
Cc1cnc(NC(=O)c2cccc3ccc(-c4cccnc4)nc23)s1 [Compound 241] | B (Fold Activation <200%) | A (EC1.5<1.0 uM)
Cc1cncc(-c2ccc3cccc(C(=O)Nc4nccs4)c3n2)c1 [Compound 242] |  | C (EC1.5>25 uM)
Cc1cncc(-c2ccc3cccc(C(=O)Nc4cccc(CN5CCOCC5)c4)c3n2)c1 [Compound 243] | A (Fold activation >200%) | A (EC1.5<1.0 uM)

Results, then the compound that gave them:

% Fold Act. (percent maximum fold activation) | EC1.5 (concentration of test compound that results in 150% activation of SIRT1) | Compound
B (Fold Activation <200%) | A (EC1.5<1.0 uM) | O=C(Nc1nccs1)c1cccc2ccc(-c3ccnc(N4CCOCC4)c3)nc12 [Compound 209]
A (Fold activation >200%) | A (EC1.5<1.0 uM) | Cc1cncc(-c2ccc3cccc(NC(=O)c4cscn4)c3n2)c1 [Compound 214]
A (Fold activation >200%) | A (EC1.5<1.0 uM) | CN1CCN(Cc2cccc(C(=O)Nc3cccc4ccc(-c5cccc(C(F)(F)F)c5)nc34)c2)CC1 [Compound 216]
A (Fold activation >200%) | A (EC1.5<1.0 uM) | Cn1cnc(C(=O)Nc2cccc3ccc(-c4cccc(C(F)(F)F)c4)nc23)c1 [Compound 221]
A (Fold activation >200%) | A (EC1.5<1.0 uM) | Cn1ccnc1C(=O)Nc1cccc2ccc(-c3cccc(C(F)(F)F)c3)nc12 [Compound 222]
A (Fold activation >200%) | B (EC1.5 1-25 uM) | Cc1nc(NC(=O)c2cccc3ccc(-c4cccnc4)nc23)sc1C [Compound 226]
A (Fold activation >200%) | A (EC1.5<1.0 uM) | O=C(Nc1cccc(CN2CCOCC2)n1)c1cccc2ccc(-c3cccc(C(F)(F)F)c3)nc12 [Compound 228]
A (Fold activation >200%) | B (EC1.5 1-25 uM) | O=C(Nc1cccc(CN2CCCC2)n1)c1cccc2ccc(-c3cccnc3)nc12 [Compound 230]
A (Fold activation >200%) | B (EC1.5 1-25 uM) | O=C(Nc1ncnc2ccc(-c3cccc(OC(F)(F)F)c3)nc12)c1ccc(CN2CCCC2)cc1 [Compound 232]
B (Fold Activation <200%) | B (EC1.5 1-25 uM) | O=C(Nc1nc2ccccc2s1)c1cccc2ccc(-c3cccnc3)nc12 [Compound 233]
A (Fold activation >200%) | A (EC1.5<1.0 uM) | Cc1cnc(NC(=O)c2cccc3ccc(-c4cccc(N5CCOCC5)c4)nc23)s1 [Compound 239]
A (Fold activation >200%) | A (EC1.5<1.0 uM) | Cc1cncc(-c2ccc3cccc(C(=O)Nc4cccc(CN5CCOCC5)n4)c3n2)c1 [Compound 244]
A (Fold activation >200%) | A (EC1.5<1.0 uM) | Cn1ccc(C(=O)Nc2cccc3ccc(-c4cccc(C(F)(F)F)c4)nc23)n1 [Compound 245]
